Measured values from PMC10353390, “Biological and Structural Analyses of New Potent Allosteric Inhibitors of HIV-1 Integrase” (Antimicrobial Agents and Chemotherapy, 2023).
Read-outs that look alike come from different tables or passages of the source.

What was measured:
[1] = parameters: method as in ref 47 = [47]; 47 Mitchell M , Balakrishnan M , Brizgys G , Cai R , Lansdon E , Mulato A , Osier M , Wang J , Yu H , Sakowicz R . 2017 . Novel non-catalytic site integrase inhibitor with improved resistance profile.; conditions: precluded further clinical investigation; cited from earlier work
[2] = tested on: HIV-1 strains resistant to INSTIs, NRTIs, NNRTIs or PIs; type: cell-based
Method in brief: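 Cell viability (CellTiter-Glo luminescence) served as read-out in MT4 cells at 10^6/mL, infected 2 h at MOI 0.001 in presence of graded compound concentrations. Viruses: resistance-mutation recombinants in NL4-3 backbone plus resistant clinical isolates.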

[3] = tested on: recombinant NL4-3 viruses with polymorphisms at IN positions 124 and 125; experiment: Multiple-round infection of MT4 cells with recombinant NL4-3 viruses polymorphic at IN positions 124 and 125; type: cell-based, HIV-1
Method in brief: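 EC50 fold change relative to wild-type TT NL4-3 was derived from CellTiter-Glo viability of exponentially growing MT4 cells (10^6/mL). Cells were exposed for 2 h, with compounds, to NL4-3 clones bearing one of 15 IN 124/125 variants at MOI 0.001.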

NL4-3 HIV-1 strain = experiment: Multiple-round infection assay in MT4 cells, NL4-3; type: cell-based; conditions: MT4 cells
[4] = tested on: NL4-3 HIV-1 with INLAI-selected IN single point mutations; type: cell-based
[5] = tested on: primary HIV-1 isolates with polymorphisms at IN positions 124 and 125; experiment: Multiple-round infection of MT4 cells with primary HIV-1 isolates polymorphic at IN positions 124 and 125; type: cell-based; conditions: primary isolate
Method in brief: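 Antiviral potency read as protection of cell viability (CellTiter-Glo luminescence). Infection at MOI 0.001 lasted 2 h with compound present at a range of concentrations, using MT4 cells at 10^6/mL in exponential growth.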

[6] = target: HIV-1 IN-LEDGF/p75 interaction (Human immunodeficiency virus type 1 group M subtype B, UniProt P12497); experiment: biochemical
[7] = tested on: lab-adapted and clinical HIV-1 isolates; experiment: Infection assays in primary T CD4+ lymphocytes; type: cell-based; conditions: Human immunodeficiency virus 1, Lymphocyte
[8] = Cytotoxicity assay in MT4 cells; type: cell-based; conditions: human, MT4 cells (proliferating human T-cell line), CellTiter-Glo
Text: Growth inhibition was monitored in a proliferating human T-cell line (MT4) with different concentrations of compounds, using the CellTiter-Glo luminescent reagent (Promega), as previously described ([12]).

HXB2 HIV-1 strain = experiment: Multiple-round infection assay in MT4 cells, HXB2; type: cell-based; conditions: Human immunodeficiency virus 1, HXB2; multiple-round infection, MT4 cells; mean ± SD, n > 5; read-out: EC50 HXB2
Method in brief: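 Antiviral read-out was CellTiter-Glo luminescent viability of exponentially growing MT4 cells (10^6/mL). Cells were exposed to HIV-1 for 2 h at an MOI of 0.001 while compound was present at varying concentrations.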

[9] = tested on: VSV-G-pseudotyped NL4-3Δenv-luc; experiment: microbe, parasite or virus in culture; type: cell-based, HIV-1
[10] = target: CCD of HIV-1 IN and IBD of LEDGF/p75 (Human immunodeficiency virus type 1 group M subtype B, UniProt P12497); experiment: biochemical
Protocol: The INLAIs were tested for the ability to inhibit the HIV-1 IN-LEDGF/p75 interaction in a homogeneous time-resolved fluorescence (HTRF) assay. Our assays used either full-length IN and LEDGF/p75 proteins or their respective minimally sufficient interaction domains: the CCD of HIV-1 IN and the IBD of LEDGF/p75 (Table 1).
HTRF-based CCD-IBD interaction, IN-LEDGF/p75 interaction and IN multimerization assays were performed as described previously ([12]).

HIV-1 IN = target: T1, HIV-1 IN (Human immunodeficiency virus type 1 group M subtype B, UniProt P12497); experiment: HTRF IN multimerization assay; type: biochemical; conditions: mean ± SD
T1 construct: made in house
Text: A key property of INLAIs is the ability to promote HIV-1 IN homo-multimerization ([39][–][42]). […] The maximal signal (plateau) in our IN aggregation assay corresponds to the highest HTRF signal increase under saturating INLAI concentration, relative to baseline level. Thus, MUT916, MUT884, MUT871, and MUT872 increased HIV-1 IN aggregation 3.7 to 4.4-fold, while BDM-2, BI-224436, and S-I-82 did so 5 to 6-fold (Table 1).

[11] = parameters: method as in ref 22 = [22]; 22 Meng X , Donazzolo Y , Kim B , Kim K . 2022 . The first-in-human clinical trial of STP0404, a novel potent HIV-1 allosteric integrase inhibitor . Poster PESUB2624th AIDS Conference , Montreal, Cana; conditions: cited from earlier work
[12] = INSTI-resistant, NL4-3 background

SMILES: Cc1cc2nc(-c3ccc4c(c3)c(C3CCN(C5COC5)CC3)nn4C)sc2c(-c2ccc(Cl)cc2)c1[C@H](OC(C)(C)C)C(=O)O [GS-9822]
- toxicity [1]: renal and urinary bladder toxicity

SMILES: Cc1ccc(C2CC2)c(-c2ccc3c(c2C)CCCO3)c1[C@H](OC1CC1)C(=O)O [MUT884]
- Fold change in EC50 relative to NL4-3, E92Q [2, 12]: 1
- Fold change in EC50 relative to NL4-3, G140S [2, 12]: 1
- Fold change in EC50 relative to NL4-3, G140S/Q148H [2, 12]: 1
- Fold change in EC50 relative to NL4-3, N155H [2, 12]: 1
- Fold change in EC50 relative to NL4-3, Q148H [2, 12]: 1
- Fold change in EC50 relative to NL4-3, Y143R [2, 12]: 0.5
- Fold change in EC50 relative to NL4-3, NLAY351717 ([2]; NRTI-resistant clone): 1
- Fold change in EC50 relative to NL4-3, NLAY351753 ([2]; NRTI/NNRTI-resistant clone): 1
- Fold change in EC50 relative to NL4-3, K103N/Y181C ([2]; NRTI/NNRTIs group, NL4-3 background): 1
- Fold change in EC50 relative to NL4-3, ARP-4595 ([2]; PI-resistant virus): 1
- Fold change in EC50 relative to NL4-3, ARP-4596 ([2]; PI-resistant virus): 1
- Fold change in EC50 relative to NL4-3, ARP-11801 ([2]; PI-resistant virus): 3
- Fold change in EC50 relative to NL4-3, ARP-11803 ([2]; PI-resistant virus): 2
- Fold change in EC50 relative to NL4-3, ARP-11807 ([2]; PI-resistant virus): 1
- Fold change in EC50 relative to NL4-3, ARP-11808 ([2]; PI-resistant virus): 2
- Fold change in EC50 relative to parental NL4-3, AA ([3]; recombinant NL4-3, IN 124/125 AA): 0.4
- Fold change in EC50 relative to parental NL4-3, AM ([3]; recombinant NL4-3, IN 124/125 AM): 0.2
- Fold change in EC50 relative to parental NL4-3, AT ([3]; recombinant NL4-3, IN 124/125 AT): 1
- Fold change in EC50 relative to parental NL4-3, AV ([3]; recombinant NL4-3, IN 124/125 AV): 0.5
- Fold change in EC50 relative to parental NL4-3, GA ([3]; recombinant NL4-3, IN 124/125 GA): 1
- Fold change in EC50 relative to parental NL4-3, GT ([3]; recombinant NL4-3, IN 124/125 GT): 2
- Fold change in EC50 relative to parental NL4-3, NA ([3]; recombinant NL4-3, IN 124/125 NA): 2
- Fold change in EC50 relative to parental NL4-3, NT ([3]; recombinant NL4-3, IN 124/125 NT): 1
- Fold change in EC50 relative to parental NL4-3, NV ([3]; recombinant NL4-3, IN 124/125 NV): 1
- Fold change in EC50 relative to parental NL4-3, SA ([3]; recombinant NL4-3, IN 124/125 SA): 1
- Fold change in EC50 relative to parental NL4-3, ST ([3]; recombinant NL4-3, IN 124/125 ST): 1
- Fold change in EC50 relative to parental NL4-3, TA ([3]; recombinant NL4-3, IN 124/125 TA): 1
- Fold change in EC50 relative to parental NL4-3, TM ([3]; recombinant NL4-3, IN 124/125 TM): 0.2
- Fold change in EC50 relative to parental NL4-3, TV ([3]; recombinant NL4-3, IN 124/125 TV): 1
- EC90 (NL4-3 HIV-1 strain; Human immunodeficiency virus 1, NL43, multiple-round infection, from dose response curves, read-out: EC90 NL4-3): 23 ± 13 nM
- EC50 (NL4-3 HIV-1 strain; Human immunodeficiency virus 1, NL43, multiple-round infection, mean ± SD, n > 5, read-out: EC50 NL4-3): 15 ± 5 nM
- Selectivity index CC50/EC50 NL4-3 (NL4-3 HIV-1 strain): 5,200
- EC50 fold change compared to wild type NL4-3, A128T [4]: 5
- EC50 fold change compared to wild type NL4-3, H171Q [4]: 1
- EC50 fold change compared to wild type NL4-3, N222K [4]: 3
- EC50 fold change compared to wild type NL4-3, T174I [4]: 12
- EC50 fold change compared to wild type NL4-3, Y99H [4]: 2
- Fold change in EC50 relative to parental NL4-3, CAM2BBY (CRF02) ([5]; IN 124/125 AA): 1
- Fold change in EC50 relative to parental NL4-3, E0836M4 (D) ([5]; IN 124/125 AA): 1
- Fold change in EC50 relative to parental NL4-3, KER2008 (A) ([5]; IN 124/125 AA): 0.5
- Fold change in EC50 relative to parental NL4-3, NP1525 (CRF01) ([5]; IN 124/125 AA): 1
- Fold change in EC50 relative to parental NL4-3, NP1695 (CRF02) ([5]; IN 124/125 AA): 2
- Fold change in EC50 relative to parental NL4-3, TZA125 (C) ([5]; IN 124/125 AA): 0.3
- Fold change in EC50 relative to parental NL4-3, KSM4030 (A) ([5]; IN 124/125 GA): 1
- Fold change in EC50 relative to parental NL4-3, vGA (C) ([5]; IN 124/125 GA): 5
- Fold change in EC50 relative to parental NL4-3, 99ET14 (C) ([5]; IN 124/125 NA): 1
- Fold change in EC50 relative to parental NL4-3, NP1538 (B) ([5]; IN 124/125 NA): 3
- Fold change in EC50 relative to parental NL4-3, vNA_1 (B) ([5]; IN 124/125 NA): 3
- Fold change in EC50 relative to parental NL4-3, vNA_2 (CRF02) ([5]; IN 124/125 NA): 4
- Fold change in EC50 relative to parental NL4-3, vNV (B) ([5]; IN 124/125 NV): 2
- Fold change in EC50 relative to parental NL4-3, vSA_1 (B) ([5]; IN 124/125 SA): 2
- Fold change in EC50 relative to parental NL4-3, vSA_2 (CRF02) ([5]; IN 124/125 SA): 2
- Fold change in EC50 relative to parental NL4-3, vTA_1 (B) ([5]; IN 124/125 TA): 1
- Fold change in EC50 relative to parental NL4-3, vTA_2 (CRF02) ([5]; IN 124/125 TA): 2
- IC50 [6]: 62 ± 9 nM
- EC50 ([7]; read-out: EC50 33913N (B)): 5.8 ± 3.2 nM
- EC50 ([7]; read-out: EC50 HXB2 (B)): 10 ± 6 nM
- EC50 ([7]; read-out: EC50 KER2008 (A)): 19 ± 3 nM
- EC50 ([7]; read-out: EC50 NL4-3 (B)): 15 ± 4 nM
- EC50 ([7]; read-out: EC50 NP1525 (CRF01_AE)): 12 ± 3 nM
- EC50 ([7]; read-out: EC50 NP1538 (B)): 41 ± 2 nM
- CC50 [8]: 78000 ± 12000 nM
- EC50 (HXB2 HIV-1 strain): 6.3 ± 1.1 nM
- EC50 ratio (single/multiple-round infection) [9]: 260
- EC50 ([9]; Human immunodeficiency virus 1, NL43, MT4, read-out: EC50 in single-round infection): 3900 ± 800 nM
- IC50 [10]: 82 ± 21 nM
- AC50 (HIV-1 IN; concentration for 50% maximum activation of multimerization): 22 ± 4 nM
- IN multimerization Plateau (HIV-1 IN; maximum multimerization reached versus baseline): 400 ± 71%

SMILES: Cc1nc2c(c(C)c(C)n2Cc2cnn(C)c2)c(-c2ccc(Cl)cc2)c1[C@H](OC(C)(C)C)C(=O)O [STP0404, Pirmitegravir]
- tolerability in clinical phase I study [11]: Well tolerated
